Laboratory results as given in PMC12020230 (Fluids and Barriers of the CNS, 2025).

How the values were obtained:
choroid plexus = experiment: ^86Rb^+ efflux from excised choroid plexus upon PKA inhibition; type: cell-based, rat; settings: H89 50 µM vs control, n = 5 of each, P < 0.01
patients = settings: midazolam anaesthesia, ref [48]; cited from earlier work
[1] = test system: idiopathic intracranial hypertension (IIH) patients; settings: small clinical trial, ref [27]; cited from earlier work
[2] = ref [58]; cited from earlier work

Compound: O=S(=O)(NCCNC/C=C/c1ccc(Br)cc1)c1cccc2cnccc12 [H89]
- reduction of K^+ efflux across the luminal membrane (choroid plexus): 25%

Compound: Cc1ncc2n1-c1ccc(Cl)cc1C(c1ccccc1F)=NC2 [midazolam]
- effect on ICP and perfusion pressure (patients): reported to modulate ICP and perfusion pressure in patients

Compound: Exenatide: GLP-1R agonist Exenatide, which has the same amino acid sequence as Ex4
- ICP reductions [1]: 1–3 mmHg

Compound: semaglutide: another GLP-1 receptor agonist, semaglutide
- risk of NAION [2]: associated with increased risk of non-arteritic anterior ischemic optic neuropathy (NAION)
